Measured values: patent US6737383B1, “Herbicidal oxadiazolidines” (priority 1999, dated 2004)

Key:
bamyardgrass = assay: Test B flood test barnyardgrass; format: in vivo, Echinochloa crus-galli
How it was run: (§1)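 Plants were grown to the 2-leaf stage before treatment with test chemical, then held in a greenhouse for twelve to sixteen days. Injury was visually rated against untreated controls on a 0–10 scale, where 0 is no effect and 10 is complete control.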

rice = assay: Test B flood test rice; format: in vivo, Oryza sativa
How it was run: as §1

duck salad = assay: Test B flood test duck salad; format: in vivo, Heteranthera limosa
Protocol: At the same time, these crop and weed species were also treated with postemergence applications of test chemicals formulated in the same manner. Plants ranged in height from 2 to 18 cm (1- to 4-leaf stage) for postemergence treatments. Plant species in the flood test consisted of rice (Oryza sativa), smallflower flatsedge (Cyperus difformis), duck salad (Heteranthera limosa) and bamyardgrass (Echinochloa crus-galli) grown to the 2-leaf stage for testing. Treated plants and controls were maintained in a greenhouse for twelve to sixteen days, after which all species were compared to controls and visually evaluated. Plant response ratings, summarized in Table B, are based on a scale of 0 to 10 where 0 is no effect and 10 is complete control. A dash (−) response means no test result.

smallflower flatsedge = assay: Test B flood test smallflower flatsedge; format: in vivo, Cyperus difformis
How it was run: as §1

corn = assay: Test B pre/postemergence corn; format: in vivo, Zea mays
How it was run: (§2)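 Response is a visual 0-to-10 score relative to untreated plants, where 0 means no effect and 10 means complete control, taken twelve to sixteen days after application. Treatments went onto soil at planting and onto foliage of 1- to 4-leaf plants, using a surfactant-containing non-phytotoxic solvent.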

wild oat = assay: Test B pre/postemergence wild oat; format: in vivo, Avena fatua
How it was run: as §2

morningglory = assay: Test B pre/postemergence morningglory; format: in vivo, Ipomoea hederacea
How it was run: as §2

wheat = assay: Test B pre/postemergence wheat; format: in vivo, Triticum aestivum
How it was run: as §2

pigweed = assay: Test B pre/postemergence pigweed; format: in vivo, Amaranthus retroflexus
How it was run: as §2

sugar beet = assay: Test B pre/postemergence sugar beet; format: in vivo, Beta vulgaris
How it was run: as §2

soybean = assay: Test B pre/postemergence soybean; format: in vivo, Glycine max
How it was run: as §2

cocklebur = assay: Test B pre/postemergence cocklebur; format: in vivo, Xanthium strumarium
How it was run: as §2

surinam grass = assay: Test B pre/postemergence surinam grass; format: in vivo, Brachiaria decumbens
How it was run: as §2

giant foxtail = assay: Test B pre/postemergence giant foxtail; format: in vivo, Setaria faberii
How it was run: as §2

blackgrass = assay: Test B pre/postemergence blackgrass; format: in vivo, Alopecurus myosuroides
How it was run: as §2

crabgrass = assay: Test B pre/postemergence crabgrass; format: in vivo, Digitaria sanguinalis
How it was run: as §2

velvetleaf = assay: Test B pre/postemergence velvetleaf; format: in vivo, Abutilon theophrasti
How it was run: as §2

rape = assay: Test B pre/postemergence rape; format: in vivo, Brassica napus
How it was run: as §2

purple nutsedge = assay: Test B pre/postemergence purple nutsedge; format: in vivo, Cyperus rotundus
How it was run: as §2

bedstraw = assay: Test B pre/postemergence bedstraw; format: in vivo, Galium aparine
How it was run: as §2

[1] = Rate 62 g/ha, flood test species, Pre-emergence, visual evaluation after twelve to sixteen days
[2] = Rate 125 g/ha, under heading Pre-emergence, flood test species, visual evaluation after twelve to sixteen days
[3] = Rate 250 g/ha, Pre-emergence (flood test species), scale 0 to 10, 0 is no effect, 10 is complete control
[4] = Rate 500 g/ha, Pre-emergence section of Table B, 0 to 10 scale (0 no effect, 10 complete control)
[5] = Preemergence, Rate 62 g/ha, scale of 0 to 10 where 0 is no effect and 10 is complete control
[6] = Preemergence, Rate 250 g/ha, scale of 0 to 10 where 0 is no effect and 10 is complete control
[7] = Preemergence, Rate 500 g/ha, scale of 0 to 10 where 0 is no effect and 10 is complete control
[8] = Rate 62 g/ha, Postemergence, scale 0 to 10, 0 no effect, 10 complete control
[9] = Rate 125 g/ha, Postemergence, scale of 0 to 10 where 0 is no effect and 10 is complete control
[10] = Rate 125 g/ha, Preemergence, scale of 0 to 10 where 0 is no effect and 10 is complete control
[11] = Rate 250 g/ha, Postemergence, scale of 0 to 10 where 0 is no effect and 10 is complete control
[12] = Rate 500 g/ha, Postemergence, scale 0 to 10, 0 no effect, 10 complete control

C=C(C(=O)OC)C(C)n1c(=O)on(C(=O)N(c2ccccc2)C(C)C)c1=O (stereo not drawn) [Compound 651]
Plant response rating, Barnyardgrass (0 to 10 scale, 0 is no effect, 10 is complete control) (bamyardgrass; [1]): 0 | Barnyardgrass plant response rating (0 to 10 scale, 0 is no effect, 10 is complete control) (bamyardgrass; [2]): 0 | Barnyardgrass plant response rating (bamyardgrass; [3]): 0 | Barnyardgrass plant response rating (bamyardgrass; [4]): 0 | Plant response rating, Rice (0 to 10 scale, 0 is no effect, 10 is complete control) (rice; [1]): 0 | Rice plant response rating (0 to 10 scale, 0 is no effect, 10 is complete control) (rice; [2]): 0 | Rice plant response rating (rice; [3]): 0 | Rice plant response rating (rice; [4]): 0 | Plant response rating, Ducksalad (0 to 10 scale, 0 is no effect, 10 is complete control) (duck salad; [1]): 0 | Ducksalad plant response rating (0 to 10 scale, 0 is no effect, 10 is complete control) (duck salad; [2]): 0 | Ducksalad plant response rating (duck salad; [3]): 0 | Ducksalad plant response rating (duck salad; [4]): 0 | Plant response rating, S. Flatsedge (0 to 10 scale, 0 is no effect, 10 is complete control) (smallflower flatsedge; [1]): 0 | S. Flatsedge plant response rating (0 to 10 scale, 0 is no effect, 10 is complete control) (smallflower flatsedge; [2]): 0 | S. Flatsedge plant response rating (smallflower flatsedge; [3]): 0 | S. Flatsedge plant response rating (smallflower flatsedge; [4]): 0

CC(=O)OCn1c(=O)on(C(=O)N(c2ccc(F)cc2)C(C)C)c1=O [Compound 292]
Corn plant response rating (corn; [5]): 0 | Corn plant response rating (corn; [6]): 0 | Plant response rating, Corn (corn; [7]): 0 | Corn plant response rating (corn; [8]): 0 | Corn plant response rating (corn; [9]): 0 | Corn plant response rating (corn; [10]): 0 | Plant response rating, Corn (corn; [11]): 0 | Corn plant response rating (corn; [12]): 0 | Wild oats plant response rating (wild oat; [5]): 0 | Wild oats plant response rating (wild oat; [6]): 0 | Plant response rating, Wild oats (wild oat; [7]): 0 | Wild oats plant response rating (wild oat; [8]): 0 | Wild oats plant response rating (wild oat; [9]): 0 | Plant response rating, Wild oats (wild oat; [11]): 0 | Morningglory plant response rating (morningglory; [5]): 0 | Morningglory plant response rating (morningglory; [6]): 0 | Plant response rating, Morningglory (morningglory; [7]): 0 | Morningglory plant response rating (morningglory; [8]): 0 | Morningglory plant response rating (morningglory; [9]): 1 | Morningglory plant response rating (morningglory; [10]): 0 | Plant response rating, Morningglory (morningglory; [11]): 2 | Wheat plant response rating (wheat; [5]): 0 | Wheat plant response rating (wheat; [6]): 0 | Plant response rating, Wheat (wheat; [7]): 0 | Wheat plant response rating (wheat; [8]): 0 | Wheat plant response rating (wheat; [9]): 0 | Wheat plant response rating (wheat; [10]): 0 | Plant response rating, Wheat (wheat; [11]): 0 | Redroot pigweed plant response rating (pigweed; [5]): 0 | Redroot pigweed plant response rating (pigweed; [6]): 0 | Plant response rating, Redroot pigweed (pigweed; [7]): 0 | Redroot pigweed plant response rating (pigweed; [8]): 0 | Redroot pigweed plant response rating (pigweed; [9]): 0 | Redroot pigweed plant response rating (pigweed; [10]): 0 | Plant response rating, Redroot pigweed (pigweed; [11]): 0 | Sugarbeets plant response rating (sugar beet; [5]): 0 | Sugarbeets plant response rating (sugar beet; [6]): 0 | Plant response rating, Sugarbeets (sugar beet; [7]): 0 | Sugarbeets plant response rating (sugar beet; [8]): 0 | Sugarbeets plant response rating (sugar beet; [9]): 0 | Sugarbeets plant response rating (sugar beet; [10]): 0 | Plant response rating, Sugarbeets (sugar beet; [11]): 0 | Soybean plant response rating (soybean; [5]): 0 | Soybean plant response rating (soybean; [6]): 0 | Plant response rating, Soybean (soybean; [7]): 0 | Soybean plant response rating (soybean; [8]): 0 | Soybean plant response rating (soybean; [9]): 0 | Soybean plant response rating (soybean; [10]): 0 | Plant response rating, Soybean (soybean; [11]): 1 | Cocklebur plant response rating (cocklebur; [5]): 0 | Cocklebur plant response rating (cocklebur; [6]): 0 | Plant response rating, Cocklebur (cocklebur; [7]): 0 | Cocklebur plant response rating (cocklebur; [8]): 0 | Cocklebur plant response rating (cocklebur; [9]): 0 | Cocklebur plant response rating (cocklebur; [10]): 0 | Plant response rating, Cocklebur (cocklebur; [11]): 0 | Cocklebur plant response rating (cocklebur; [12]): 0 | B. signalgrass plant response rating (surinam grass; [5]): 0 | B. signalgrass plant response rating (surinam grass; [6]): 0 | Plant response rating, B. signalgrass (surinam grass; [7]): 0 | B. signalgrass plant response rating (surinam grass; [8]): 0 | B. signalgrass plant response rating (surinam grass; [9]): 0 | B. signalgrass plant response rating (surinam grass; [10]): 0 | Plant response rating, B. signalgrass (surinam grass; [11]): 0 | B. signalgrass plant response rating (surinam grass; [12]): 0 | Giant foxtail plant response rating (giant foxtail; [5]): 0 | Giant foxtail plant response rating (giant foxtail; [6]): 0 | Plant response rating, Giant foxtail (giant foxtail; [7]): 0 | Giant foxtail plant response rating (giant foxtail; [8]): 0 | Giant foxtail plant response rating (giant foxtail; [9]): 0 | Giant foxtail plant response rating (giant foxtail; [10]): 0 | Plant response rating, Giant foxtail (giant foxtail; [11]): 0 | Blackgrass plant response rating (blackgrass; [5]): 0 | Blackgrass plant response rating (blackgrass; [6]): 0 | Plant response rating, Blackgrass (blackgrass; [7]): 0 | Blackgrass plant response rating (blackgrass; [8]): 0 | Blackgrass plant response rating (blackgrass; [9]): 0 | Blackgrass plant response rating (blackgrass; [10]): 0 | Plant response rating, Blackgrass (blackgrass; [11]): 0 | Blackgrass plant response rating (blackgrass; [12]): 0 | Crabgrass plant response rating (crabgrass; [5]): 0 | Crabgrass plant response rating (crabgrass; [6]): 0 | Plant response rating, Crabgrass (crabgrass; [7]): 0 | Crabgrass plant response rating (crabgrass; [8]): 0 | Crabgrass plant response rating (crabgrass; [9]): 0 | Crabgrass plant response rating (crabgrass; [10]): 0 | Plant response rating, Crabgrass (crabgrass; [11]): 0 | Velvetleaf plant response rating (velvetleaf; [5]): 0 | Velvetleaf plant response rating (velvetleaf; [6]): 0 | Plant response rating, Velvetleaf (velvetleaf; [7]): 0 | Velvetleaf plant response rating (velvetleaf; [8]): 0 | Velvetleaf plant response rating (velvetleaf; [9]): 0 | Velvetleaf plant response rating (velvetleaf; [10]): 0 | Plant response rating, Velvetleaf (velvetleaf; [11]): 0 | Rape plant response rating (rape; [5]): 0 | Rape plant response rating (rape; [6]): 0 | Plant response rating, Rape (rape; [7]): 0 | Rape plant response rating (rape; [8]): 0 | Rape plant response rating (rape; [9]): 0 | Rape plant response rating (rape; [10]): 0 | Plant response rating, Rape (rape; [11]): 0 | Nutsedge plant response rating (purple nutsedge; [5]): 0 | Nutsedge plant response rating (purple nutsedge; [6]): 0 | Plant response rating, Nutsedge (purple nutsedge; [7]): 0 | Nutsedge plant response rating (purple nutsedge; [8]): 0 | Nutsedge plant response rating (purple nutsedge; [9]): 0 | Nutsedge plant response rating (purple nutsedge; [10]): 0 | Plant response rating, Nutsedge (purple nutsedge; [11]): 0 | Bedstraw plant response rating (bedstraw; [5]): 0 | Bedstraw plant response rating (bedstraw; [6]): 0 | Plant response rating, Bedstraw (bedstraw; [7]): 0 | Bedstraw plant response rating (bedstraw; [8]): 0 | Bedstraw plant response rating (bedstraw; [9]): 0 | Bedstraw plant response rating (bedstraw; [10]): 0 | Plant response rating, Bedstraw (bedstraw; [11]): 0 | Bedstraw plant response rating (bedstraw; [12]): 0
